Patent US7291609B2, “Specific glucocorticosteroid compound having anti-inflammatory activity” (Glaxo Group Limited, priority 2003, dated 2007)

Legend:
Assay type in all cases: cell-based
[1] = target: T1, glucocorticoid receptor (Homo sapiens, UniProt P04150); experiment: NF-κB transrepression reporter assay (ELAM promoter-sPAP) in A549 cells; conditions: compound 1 hour at 37° C., then TNF 10 ng/ml for 16 hours, read-out: EC50 (transrepressive activity)
T1 construct: A549 cells stably transfected with a reporter gene; endogenous in cells; host or cells: A549 cells (stably transfected with a reporter gene only)
T1 sequence (P04150 1-777): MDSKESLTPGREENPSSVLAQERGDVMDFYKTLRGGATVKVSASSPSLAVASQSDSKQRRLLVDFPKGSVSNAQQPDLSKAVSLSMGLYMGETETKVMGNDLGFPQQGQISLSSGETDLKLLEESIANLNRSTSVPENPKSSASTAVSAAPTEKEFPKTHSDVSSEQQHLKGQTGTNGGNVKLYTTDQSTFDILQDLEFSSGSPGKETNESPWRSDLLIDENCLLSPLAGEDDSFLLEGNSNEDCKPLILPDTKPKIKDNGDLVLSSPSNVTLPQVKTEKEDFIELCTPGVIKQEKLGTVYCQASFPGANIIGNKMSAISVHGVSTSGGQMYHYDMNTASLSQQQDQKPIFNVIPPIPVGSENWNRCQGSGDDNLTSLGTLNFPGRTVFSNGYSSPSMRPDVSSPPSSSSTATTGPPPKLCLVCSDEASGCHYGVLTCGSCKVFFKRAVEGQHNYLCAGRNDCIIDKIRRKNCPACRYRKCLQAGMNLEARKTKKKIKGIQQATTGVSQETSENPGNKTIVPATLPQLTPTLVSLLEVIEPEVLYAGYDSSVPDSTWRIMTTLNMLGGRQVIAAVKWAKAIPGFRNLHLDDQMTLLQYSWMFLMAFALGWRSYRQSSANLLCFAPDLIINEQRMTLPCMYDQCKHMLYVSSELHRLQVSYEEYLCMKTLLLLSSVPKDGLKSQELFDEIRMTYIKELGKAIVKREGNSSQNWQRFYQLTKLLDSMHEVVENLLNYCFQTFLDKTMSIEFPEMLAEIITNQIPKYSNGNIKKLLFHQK
Method: The functional assay based on that described by K. P. Ray et al., Biochem J. (1997), 328, 707-715 provides a measure of transrepressive activity of a glucocorticoid agonist. A549 cells stably transfected with a reporter gene containing the NF-κB responsive elements from the ELAM gene promoter coupled to sPAP (secreted alkaline phosphatase) are treated with test compounds at appropriate doses for 1 hour at 37° C. The cells are then stimulated with tumour necrosis factor (TNF, 10 ng/ml) for 16 hours, at which time the amount of alkaline phosphatase produced is measured by a standard colourimetric assay. Dose response curves are constructed from which EC50 values may be estimated.

[2] = target: T1, glucocorticoid receptor; experiment: MMTV-LTR renilla luciferase transactivation reporter assay in A549 cells; conditions: 6 hour at 37° C., read-out: maximal response relative to Dexamethasone (100%)
Method: The functional assay based on that described by R. J. H. Austin et al., Eur Resp J. (2002), 20, 1386-1392 measures the ability of compounds to directly transactivate gene expression. A549 cells stably transfected with a reporter gene containing the glucocorticoid responsive region of the mouse mammary tumour virus long terminal repeat (MMTV-LTR) coupled to renilla luciferase were treated with test compounds at appropriate doses for 6 hour at 37° C. The amount of luciferase activity present within the cells is then determined by measuring the light emitted following incubation with a suitable substrate.

[3] = target: T2, Progesterone Receptor (Homo sapiens, UniProt P06401); experiment: Assay for progesterone receptor activity (alkaline phosphatase in T47D cells); conditions: T47D human breast cancer cells, 24 hours at 37° C.; read-out: EC50 (alkaline phosphatase upregulation)
T2 construct: T47D cells were seeded into 96 well plates; endogenous in cells; host or cells: T47D human breast cancer cells
T2 sequence (P06401 1-933): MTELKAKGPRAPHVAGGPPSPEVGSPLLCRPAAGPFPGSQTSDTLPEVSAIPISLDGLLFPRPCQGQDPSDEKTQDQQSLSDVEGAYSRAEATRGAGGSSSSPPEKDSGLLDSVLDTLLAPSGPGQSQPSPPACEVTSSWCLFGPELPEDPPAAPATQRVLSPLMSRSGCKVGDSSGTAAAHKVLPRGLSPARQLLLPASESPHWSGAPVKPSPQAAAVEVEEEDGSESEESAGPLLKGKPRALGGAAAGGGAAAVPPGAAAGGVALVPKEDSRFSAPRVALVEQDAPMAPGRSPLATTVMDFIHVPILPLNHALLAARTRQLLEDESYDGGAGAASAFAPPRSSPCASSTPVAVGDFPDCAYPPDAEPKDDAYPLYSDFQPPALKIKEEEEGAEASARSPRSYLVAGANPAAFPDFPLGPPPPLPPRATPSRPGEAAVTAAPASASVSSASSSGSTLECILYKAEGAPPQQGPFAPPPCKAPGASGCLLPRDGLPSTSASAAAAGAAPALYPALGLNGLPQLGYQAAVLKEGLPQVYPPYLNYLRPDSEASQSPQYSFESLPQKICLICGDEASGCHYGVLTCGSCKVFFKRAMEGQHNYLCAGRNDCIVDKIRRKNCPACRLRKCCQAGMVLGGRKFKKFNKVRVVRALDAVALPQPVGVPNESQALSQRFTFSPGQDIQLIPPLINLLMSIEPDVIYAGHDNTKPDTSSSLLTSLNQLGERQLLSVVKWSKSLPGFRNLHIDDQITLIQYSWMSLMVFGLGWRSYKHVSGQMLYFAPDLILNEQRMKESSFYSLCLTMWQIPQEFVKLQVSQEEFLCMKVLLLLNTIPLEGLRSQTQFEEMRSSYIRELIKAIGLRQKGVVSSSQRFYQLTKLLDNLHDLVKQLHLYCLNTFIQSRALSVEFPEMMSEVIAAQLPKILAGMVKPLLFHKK

EC50 [1]: < 0.1 nM | Emax [2]: < 5% | EC50 [3]: > 100 nM
SMILES: C[C@@H]1C[C@H]2[C@@H]3C[C@H](F)C4=CC(=O)C=C[C@]4(C)[C@@]3(F)[C@@H](O)C[C@]2(C)[C@@]1(OC(=O)C1C(C)(C)C1(C)C)C(=O)OCC#N [Example 1, 6α,9α-Difluoro-11β-hydroxy-16α-methyl-3-oxo-17α-(2,2,3,3-tetramethycyclopropylcarbonyl)oxy-androsta-1,4-diene-17β-carboxylic acid cyanomethyl ester]
